The NIST ThermoML archive (doi:10.1021/je2010209)
± gives the expanded uncertainty stated by the source.

Experiment: xn = mol fraction of the nth substance listed
Details: 101 kPa, Liquid; for mass density: Vibrating tube method; for speed of sound: Sing-around technique in a fixed-path interferometer

In the case of `COCCO` [2-methoxyethan-1-ol] + CCCCn1cc[n+](C)c1.F[B-](F)(F)F, the mass density (303.15 K, x2 = 0) is reported as 955.825 ± 1.7 kg/m3, the mass density (303.15 K, x2 = 0.0509) is reported as 987.145 ± 1.8 kg/m3 and the mass density (303.15 K, x2 = 0.1092) is reported as 1017.07 ± 1.8 kg/m3. For the same compound, the mass density (303.15 K, x2 = 0.2052) was 1056.15 ± 1.8 kg/m3, the mass density (303.15 K, x2 = 0.3071) was 1087.96 ± 1.8 kg/m3 and the mass density (303.15 K, x2 = 0.4025) was 1111.59 ± 1.8 kg/m3. The mass density (303.15 K, x2 = 0.5116) was 1133.65 ± 1.7 kg/m3, the mass density (303.15 K, x2 = 0.6257) was 1152.84 ± 1.6 kg/m3 and the mass density (303.15 K, x2 = 0.7153) was 1165.77 ± 1.5 kg/m3. For the same compound, the mass density (303.15 K, x2 = 0.8088) was 1177.66 ± 1.4 kg/m3, the mass density (303.15 K, x2 = 0.9155) was 1189.04 ± 1.3 kg/m3 and the speed of sound (308.15 K, x2 = 0) was 1321 ± 5 m/s. It also gave a speed of sound (308.15 K, x2 = 0.0509) of 1344 ± 5 m/s, a speed of sound (308.15 K, x2 = 0.1092) of 1375 ± 5 m/s and a speed of sound (308.15 K, x2 = 0.2052) of 1415 ± 5 m/s. It also gave a speed of sound (308.15 K, x2 = 0.3071) of 1443 ± 5 m/s, a speed of sound (308.15 K, x2 = 0.4025) of 1467 ± 5 m/s and a speed of sound (308.15 K, x2 = 0.5116) of 1488 ± 5 m/s. It also gave a speed of sound (308.15 K, x2 = 0.6257) of 1505 ± 5 m/s, a speed of sound (308.15 K, x2 = 0.7153) of 1517 ± 5 m/s and a speed of sound (308.15 K, x2 = 0.8088) of 1526 ± 5 m/s. The speed of sound (308.15 K, x2 = 0.9155) was 1536 ± 5 m/s, the mass density (308.15 K, x2 = 0) was 951.214 ± 1.7 kg/m3 and the mass density (308.15 K, x2 = 0.0509) was 982.765 ± 1.8 kg/m3. The mass density (308.15 K, x2 = 0.1092) was 1012.72 ± 1.8 kg/m3, the mass density (308.15 K, x2 = 0.2052) was 1051.85 ± 1.8 kg/m3 and the mass density (308.15 K, x2 = 0.3071) was 1083.79 ± 1.8 kg/m3. It also gave a mass density (308.15 K, x2 = 0.4025) of 1107.66 ± 1.8 kg/m3, a mass density (308.15 K, x2 = 0.5116) of 1129.9 ± 1.7 kg/m3 and a mass density (308.15 K, x2 = 0.6257) of 1149.1 ± 1.6 kg/m3. It also gave a mass density (308.15 K, x2 = 0.7153) of 1162.09 ± 1.5 kg/m3, a mass density (308.15 K, x2 = 0.8088) of 1174.01 ± 1.4 kg/m3 and a mass density (308.15 K, x2 = 0.9155) of 1185.43 ± 1.3 kg/m3. It also gave a speed of sound (313.15 K, x2 = 0) of 1304 ± 5 m/s, a speed of sound (313.15 K, x2 = 0.0509) of 1328 ± 5 m/s and a speed of sound (313.15 K, x2 = 0.1092) of 1359 ± 5 m/s. For the same compound, the speed of sound (313.15 K, x2 = 0.2052) was 1400 ± 5 m/s, the speed of sound (313.15 K, x2 = 0.3071) was 1430 ± 5 m/s and the speed of sound (313.15 K, x2 = 0.4025) was 1453 ± 5 m/s. The speed of sound (313.15 K, x2 = 0.5116) was 1475 ± 5 m/s, the speed of sound (313.15 K, x2 = 0.6257) was 1492 ± 5 m/s and the speed of sound (313.15 K, x2 = 0.7153) was 1505 ± 5 m/s. The speed of sound (313.15 K, x2 = 0.8088) was 1514 ± 5 m/s, the speed of sound (313.15 K, x2 = 0.9155) was 1525 ± 5 m/s and the mass density (313.15 K, x2 = 0) was 946.562 ± 1.7 kg/m3. The mass density (313.15 K, x2 = 0.0509) was 978.381 ± 1.8 kg/m3, the mass density (313.15 K, x2 = 0.1092) was 1008.49 ± 1.8 kg/m3 and the mass density (313.15 K, x2 = 0.2052) was 1047.68 ± 1.8 kg/m3. The mass density (313.15 K, x2 = 0.3071) was 1079.71 ± 1.8 kg/m3, the mass density (313.15 K, x2 = 0.4025) was 1103.68 ± 1.8 kg/m3 and the mass density (313.15 K, x2 = 0.5116) was 1126.04 ± 1.7 kg/m3. It also gave a mass density (313.15 K, x2 = 0.6257) of 1145.37 ± 1.6 kg/m3, a mass density (313.15 K, x2 = 0.7153) of 1158.41 ± 1.5 kg/m3 and a mass density (313.15 K, x2 = 0.8088) of 1170.38 ± 1.4 kg/m3. For the same compound, the mass density (313.15 K, x2 = 0.9155) was 1181.84 ± 1.3 kg/m3, the speed of sound (318.15 K, x2 = 0) was 1287 ± 5 m/s and the speed of sound (318.15 K, x2 = 0.0509) was 1311 ± 5 m/s. For the same compound, the speed of sound (318.15 K, x2 = 0.1092) was 1343 ± 5 m/s, the speed of sound (318.15 K, x2 = 0.2052) was 1383 ± 5 m/s and the speed of sound (318.15 K, x2 = 0.3071) was 1415 ± 5 m/s. For the same compound, the speed of sound (318.15 K, x2 = 0.4025) was 1440 ± 5 m/s, the speed of sound (318.15 K, x2 = 0.5116) was 1461 ± 5 m/s and the speed of sound (318.15 K, x2 = 0.6257) was 1479 ± 5 m/s. The speed of sound (318.15 K, x2 = 0.7153) was 1492 ± 5 m/s, the speed of sound (318.15 K, x2 = 0.8088) was 1502 ± 5 m/s and the speed of sound (318.15 K, x2 = 0.9155) was 1513 ± 5 m/s. The mass density (318.15 K, x2 = 0) was 941.864 ± 1.7 kg/m3, the mass density (318.15 K, x2 = 0.0509) was 973.683 ± 1.7 kg/m3 and the mass density (318.15 K, x2 = 0.1092) was 1004.01 ± 1.8 kg/m3. For the same compound, the mass density (318.15 K, x2 = 0.2052) was 1043.46 ± 1.8 kg/m3, the mass density (318.15 K, x2 = 0.3071) was 1075.71 ± 1.8 kg/m3 and the mass density (318.15 K, x2 = 0.4025) was 1099.79 ± 1.7 kg/m3. The mass density (318.15 K, x2 = 0.5116) was 1122.25 ± 1.7 kg/m3, the mass density (318.15 K, x2 = 0.6257) was 1141.63 ± 1.6 kg/m3 and the mass density (318.15 K, x2 = 0.7153) was 1154.74 ± 1.5 kg/m3. The mass density (318.15 K, x2 = 0.8088) was 1166.72 ± 1.4 kg/m3 and the mass density (318.15 K, x2 = 0.9155) was 1178.23 ± 1.3 kg/m3.
